# Experimental data from the supplement of paper PMC10307832.
# Compound: COCC[n+]1c2c(n(Cc3cnccn3)c1C)C(=O)c1ccccc1C2=O [YM155] + CC(C)C[C@H](NC(=O)[C@H](Cc1ccccc1)NC(=O)c1cnccn1)B(O)O [Bortezomib] (partner 0.002 µM)
# Test: relative viability (nuclei count vs DMSO), 5 days (fraction); higher = more cells survive
# Conditions: first compound 0.002 µM
# Procedure, shortened: (§1)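 Medians of duplicate plates are given as relative viability. That measure is the nuclei count in treated wells divided by the count in vehicle wells. Counts were taken on 4× images of lung cancer cell lines in 1536-well plates, 5 days after pin-tool dosing the day after seeding with one drug alone or a fixed anchor-drug dose plus five library-drug doses (not always all listed) in √10 steps.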
row,Cell Line,relative viability
1,HCC-78,0.536
2,COR-L 105,0.682
3,HCC-15,0.939
4,HARA,1.06
5,NCI-H1975,0.335
6,NCI-H2126,1.07
7,EMC-BAC-2,1.03
8,SK-LU-1,1.05
9,NCI-H661,0.894
10,HOP-62,0.737
11,PC-14,0.905
12,NCI-H1993,1.12
13,NCI-H2405,0.951
14,NCI-H3122,1
15,A-427,0.972
16,LOU-NH91,0.704

row,Cell Line,relative viability
1,NCI-H1666,0.644
2,NCI-H23,0.7
3,NCI-H838,0.94
4,NCI-H322M,1.22
5,NCI-H441,0.452
6,SW 1573,0.95
7,201T,1.04
8,NCI-H1755,0.941
9,NCI-H1650,0.216
10,ChaGo-K-1,1.02
11,COR-L23,0.923
12,NCI-H2085,0.949
13,NCI-H460,0.991
14,BEN,0.665
15,PC-3 [JPC-3],0.823
16,LC-2-ad,0.975

# Same assay, conditions: first compound 0.006325 µM
row,Cell Line,relative viability
1,HCC-78,0.569
2,COR-L 105,0.81
3,HCC-15,1.02
4,HARA,1.1
5,NCI-H1975,0.43
6,NCI-H2126,1.13
7,EMC-BAC-2,1.08
8,SK-LU-1,1.04
9,NCI-H661,0.983
10,CAL-12T,1.04
11,HOP-62,0.752
12,PC-14,0.861
13,NCI-H1993,1.05
14,NCI-H2405,1.01
15,NCI-H3122,1.01
16,A-427,0.99
17,LOU-NH91,0.521

row,Cell Line,relative viability
1,NCI-H596,1.18
2,NCI-H23,1.05
3,NCI-H838,1.01
4,NCI-H322M,1.18
5,NCI-H441,0.407
6,SW 1573,0.946
7,201T,1.13
8,NCI-H1755,0.894
9,NCI-H1650,0.23
10,ChaGo-K-1,1.01
11,COR-L23,0.929
12,NCI-H2085,0.974
13,NCI-H460,1.24
14,BEN,0.849
15,PC-3 [JPC-3],0.94
16,LC-2-ad,1.03

# Same assay, conditions: first compound 0.02 µM
row,Cell Line,relative viability
1,HCC-78,0.552
2,COR-L 105,0.958
3,HCC-15,0.965
4,HARA,1.14
5,NCI-H1975,0.444
6,NCI-H2126,1.09
7,EMC-BAC-2,1.04
8,SK-LU-1,1.54
9,NCI-H661,0.835
10,CAL-12T,1.29
11,HOP-62,0.763
12,PC-14,0.93
13,NCI-H1993,0.922
14,NCI-H2405,0.971
15,NCI-H3122,1.05
16,A-427,1.17
17,LOU-NH91,0.487

row,Cell Line,relative viability
1,NCI-H596,0.946
2,NCI-H1666,0.815
3,NCI-H23,0.929
4,NCI-H838,0.958
5,NCI-H322M,1.19
6,NCI-H441,0.466
7,SW 1573,0.954
8,201T,1.09
9,NCI-H1755,1.03
10,NCI-H1650,0.221
11,ChaGo-K-1,0.927
12,COR-L23,0.617
13,NCI-H2085,0.83
14,NCI-H460,1.19
15,BEN,0.852
16,PC-3 [JPC-3],0.774
17,LC-2-ad,1.02

# Same assay, conditions: first compound 0.06325 µM
row,Cell Line,relative viability
1,HCC-78,0.656
2,COR-L 105,0.786
3,HCC-15,0.953
4,HARA,1.04
5,NCI-H1975,0.272
6,NCI-H2126,1.16
7,EMC-BAC-2,1.06
8,SK-LU-1,1.09
9,NCI-H661,0.848
10,CAL-12T,0.895
11,HOP-62,0.696
12,PC-14,0.771
13,NCI-H1993,0.69
14,NCI-H2405,0.701
15,NCI-H3122,0.973
16,A-427,0.896
17,LOU-NH91,0.555

row,Cell Line,relative viability
1,NCI-H596,1.19
2,NCI-H1666,0.718
3,NCI-H23,0.455
4,NCI-H838,0.817
5,NCI-H322M,1.37
6,NCI-H441,0.446
7,SW 1573,0.568
8,201T,1.06
9,NCI-H1755,0.923
10,NCI-H1650,0.19
11,ChaGo-K-1,0.956
12,COR-L23,0.362
13,NCI-H2085,0.631
14,NCI-H460,1.04
15,BEN,0.906
16,PC-3 [JPC-3],0.904
17,LC-2-ad,0.947

# Compound: COCC[n+]1c2c(n(Cc3cnccn3)c1C)C(=O)c1ccccc1C2=O [YM155] + Cc1nc(Nc2ncc(C(=O)Nc3c(C)cccc3Cl)s2)cc(N2CCN(CCO)CC2)n1 [Dasatinib] (partner 0.075 µM)
# Test: as above
# Conditions: first compound 0.002 µM
# Procedure, shortened: as §1
row,Cell Line,relative viability
1,HCC-78,0.313
2,COR-L 105,0.284
3,HCC-15,0.663
4,HARA,0.161
5,NCI-H1975,0.312
6,NCI-H2126,0.583
7,EMC-BAC-2,0.327
8,SK-LU-1,0.215
9,NCI-H661,0.742
10,CAL-12T,0.255
11,HOP-62,0.673
12,PC-14,0.231
13,NCI-H1993,0.568
14,NCI-H2405,0.191
15,NCI-H3122,0.548
16,A-427,0.688
17,LOU-NH91,0.539

row,Cell Line,relative viability
1,NCI-H596,0.653
2,NCI-H1666,0.812
3,NCI-H23,0.634
4,NCI-H322M,0.238
5,NCI-H441,0.609
6,SW 1573,0.446
7,201T,0.562
8,NCI-H1755,0.449
9,NCI-H1650,0.283
10,ChaGo-K-1,0.463
11,COR-L23,0.503
12,NCI-H2085,0.287
13,NCI-H460,0.487
14,BEN,0.331
15,PC-3 [JPC-3],0.917
16,LC-2-ad,0.529

# Same assay, conditions: first compound 0.006325 µM
row,Cell Line,relative viability
1,HCC-78,0.487
2,COR-L 105,0.333
3,HCC-15,0.56
4,HARA,0.278
5,NCI-H1975,0.334
6,NCI-H2126,0.673
7,EMC-BAC-2,0.355
8,SK-LU-1,0.175
9,NCI-H661,0.802
10,CAL-12T,0.615
11,HOP-62,0.64
12,PC-14,0.26
13,NCI-H1993,0.572
14,NCI-H2405,0.22
15,NCI-H3122,0.641
16,A-427,0.734
17,LOU-NH91,0.62

row,Cell Line,relative viability
1,NCI-H596,0.58
2,NCI-H1666,0.791
3,NCI-H23,0.692
4,NCI-H838,0.291
5,NCI-H322M,0.271
6,NCI-H441,0.674
7,SW 1573,0.474
8,201T,0.616
9,NCI-H1755,0.4
10,NCI-H1650,0.338
11,ChaGo-K-1,0.503
12,COR-L23,0.463
13,NCI-H2085,0.224
14,NCI-H460,0.499
15,BEN,0.269
16,PC-3 [JPC-3],1.04
17,LC-2-ad,0.547

# Same assay, conditions: first compound 0.02 µM
row,Cell Line,relative viability
1,HCC-78,0.477
2,COR-L 105,0.312
3,HCC-15,0.593
4,HARA,0.298
5,NCI-H1975,0.352
6,NCI-H2126,0.626
7,EMC-BAC-2,0.325
8,SK-LU-1,0.185
9,NCI-H661,0.925
10,CAL-12T,0.602
11,HOP-62,0.706
12,PC-14,0.252
13,NCI-H1993,0.478
14,NCI-H2405,0.206
15,NCI-H3122,0.857
16,A-427,0.839
17,LOU-NH91,0.569

row,Cell Line,relative viability
1,NCI-H596,0.544
2,NCI-H1666,0.799
3,NCI-H23,0.785
4,NCI-H838,0.299
5,NCI-H322M,0.278
6,NCI-H441,0.558
7,SW 1573,0.133
8,201T,0.558
9,NCI-H1755,0.467
10,NCI-H1650,0.368
11,ChaGo-K-1,0.582
12,COR-L23,0.367
13,NCI-H2085,0.23
14,NCI-H460,0.582
15,BEN,0.36
16,PC-3 [JPC-3],1.02
17,LC-2-ad,0.674

# Same assay, conditions: first compound 0.06325 µM
row,Cell Line,relative viability
1,HCC-78,0.47
2,COR-L 105,0.283
3,HCC-15,0.507
4,HARA,0.292
5,NCI-H1975,0.233
6,NCI-H2126,0.745
7,EMC-BAC-2,0.338
8,SK-LU-1,0.206
9,NCI-H661,0.749
10,CAL-12T,0.393
11,HOP-62,0.646
12,PC-14,0.114
13,NCI-H1993,0.539
14,NCI-H2405,0.21
15,NCI-H3122,0.932
16,A-427,0.818
17,LOU-NH91,0.599

row,Cell Line,relative viability
1,NCI-H596,0.692
2,NCI-H1666,0.826
3,NCI-H23,0.601
4,NCI-H838,0.281
5,NCI-H322M,0.26
6,NCI-H441,0.495
7,SW 1573,0.0759
8,201T,0.609
9,NCI-H1755,0.453
10,NCI-H1650,0.353
11,ChaGo-K-1,0.629
12,COR-L23,0.221
13,NCI-H2085,0.211
14,NCI-H460,0.547
15,BEN,0.348
16,PC-3 [JPC-3],1.01
17,LC-2-ad,0.649

# Compound: CC(C)(C)c1cc(NC(=O)Nc2ccc(-c3cn4c(n3)sc3cc(OCCN5CCOCC5)ccc34)cc2)no1 [Quizartinib] + Nc1nc2[nH]cc(CCc3ccc(C(=O)N[C@@H](CCC(=O)O)C(=O)O)cc3)c2c(=O)[nH]1 [Pemetrexed] (partner 0.2 µM)
# Test: as above
# Conditions: first compound 0.001 µM
# Procedure, shortened: as §1
row,Cell Line,relative viability
1,HCC-78,0.915
2,COR-L 105,0.985
3,HCC-15,0.223
4,HARA,0.257
5,NCI-H1975,0.283
6,NCI-H2126,0.682
7,EMC-BAC-2,0.365
8,SK-LU-1,0.875
9,NCI-H661,0.868
10,CAL-12T,1.01
11,HOP-62,0.3
12,PC-14,0.134
13,NCI-H1993,0.55
14,NCI-H2405,0.961
